Experimental data from publication PMC12525784, “Novel Azaborine-Based Inhibitors of Histone Deacetylases (HDACs)” (Molecules, 2025).

Tests used:
Format in all cases: biochemical
HDAC4 = biological target: T1, HDAC4 (Homo sapiens, UniProt P56524); experiment: HDAC4 enzymatic activity assay (dose-response, Boc-Lys(Tfa)-AMC); conditions: 1 nM HDAC4, 20 µM Boc-Lys(Tfa)-AMC; triplicate, mean ± SD
T1 construct: made in house
Protocol: (§1) Enzymatic activity assays for compound screening and dose–response analysis were performed as previously described. […] For dose–response curves, serial inhibitor dilutions were incubated with 40 nM HDAC1 (BPS Bioscience, San Diego, CA, USA), 1 nM HDAC4, or 10 nM HDAC8. […] All IC50 determinations were performed in triplicate, and the results are expressed as mean values ± standard deviation (SD). HDAC4 and HDAC8 were produced according to previously reported protocols. HDAC1 was purchased from BPS Bioscience (San Diego, CA, USA). Boc-Lys(Tfa)-AMC and trypsin were purchased from Bachem (Bubendorf, Switzerland) and AppliChem (Darmstadt, Germany), respectively.

HDAC8 = biological target: T2, HDAC8 (Homo sapiens, UniProt Q9BY41); experiment: HDAC8 enzymatic activity assay (dose-response, Boc-Lys(Tfa)-AMC); conditions: 10 nM HDAC8, 20 µM Boc-Lys(Tfa)-AMC; triplicate, mean ± SD
T2 construct: made in house
T2 sequence (Q9BY41 1-377): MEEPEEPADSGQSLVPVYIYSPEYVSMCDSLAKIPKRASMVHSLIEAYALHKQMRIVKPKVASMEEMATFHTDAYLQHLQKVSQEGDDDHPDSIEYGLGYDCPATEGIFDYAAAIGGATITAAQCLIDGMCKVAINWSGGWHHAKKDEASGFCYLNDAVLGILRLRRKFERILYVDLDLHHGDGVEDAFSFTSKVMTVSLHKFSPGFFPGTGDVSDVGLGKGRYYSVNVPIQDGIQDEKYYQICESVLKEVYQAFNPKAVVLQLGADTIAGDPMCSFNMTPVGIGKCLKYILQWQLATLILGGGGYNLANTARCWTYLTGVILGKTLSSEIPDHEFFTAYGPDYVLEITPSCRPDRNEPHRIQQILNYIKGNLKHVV
Protocol: as §1

HDAC1 = biological target: T3, HDAC1 (Homo sapiens, UniProt Q13547); experiment: HDAC1 enzymatic activity assay (dose-response, Boc-Lys(Ac)-AMC); conditions: 40 nM HDAC1, 50 µM Boc-Lys(Ac)-AMC; triplicate, mean ± SD
T3 construct: purchased BPS Bioscience
Protocol: Enzymatic activity assays for compound screening and dose–response analysis were performed as previously described. In brief, compounds were screened at 35 µM using 1 nM HDAC4 and 10 nM HDAC8, respectively. For dose–response curves, serial inhibitor dilutions were incubated with 40 nM HDAC1 (BPS Bioscience, San Diego, CA, USA), 1 nM HDAC4, or 10 nM HDAC8. Reactions were initiated with 20 µM Boc-Lys(Tfa)-AMC (HDAC4/8) or 50 µM Boc-Lys(Ac)-AMC (HDAC1) and terminated with 0.4 mg/mL trypsin ([…]) and 1.7 µM SATFMK (HDAC4/8) or 4.2 µM SAHA (HDAC1). All IC50 determinations were performed in triplicate, and the results are expressed as mean values ± standard deviation (SD). HDAC4 and HDAC8 were produced according to previously reported protocols. HDAC1 was purchased from BPS Bioscience (San Diego, CA, USA). Boc-Lys(Tfa)-AMC and trypsin were purchased from Bachem (Bubendorf, Switzerland) and AppliChem (Darmstadt, Germany), respectively.

T3 sequence (Q13547 whole entry): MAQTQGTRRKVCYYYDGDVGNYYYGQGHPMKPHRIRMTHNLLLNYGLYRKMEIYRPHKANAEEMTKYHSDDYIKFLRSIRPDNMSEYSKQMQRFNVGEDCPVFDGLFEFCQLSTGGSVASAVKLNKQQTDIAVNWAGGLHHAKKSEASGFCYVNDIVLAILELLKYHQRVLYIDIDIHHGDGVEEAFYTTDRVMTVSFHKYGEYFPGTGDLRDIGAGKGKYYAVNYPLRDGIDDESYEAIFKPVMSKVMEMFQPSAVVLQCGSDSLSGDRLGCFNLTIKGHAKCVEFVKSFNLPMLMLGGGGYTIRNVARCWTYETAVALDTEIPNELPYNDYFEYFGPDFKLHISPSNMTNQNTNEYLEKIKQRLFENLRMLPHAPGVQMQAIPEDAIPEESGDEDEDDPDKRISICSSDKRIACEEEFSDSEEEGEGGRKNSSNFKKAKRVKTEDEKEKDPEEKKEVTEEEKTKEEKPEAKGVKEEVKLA
T1 sequence (P56524 whole entry): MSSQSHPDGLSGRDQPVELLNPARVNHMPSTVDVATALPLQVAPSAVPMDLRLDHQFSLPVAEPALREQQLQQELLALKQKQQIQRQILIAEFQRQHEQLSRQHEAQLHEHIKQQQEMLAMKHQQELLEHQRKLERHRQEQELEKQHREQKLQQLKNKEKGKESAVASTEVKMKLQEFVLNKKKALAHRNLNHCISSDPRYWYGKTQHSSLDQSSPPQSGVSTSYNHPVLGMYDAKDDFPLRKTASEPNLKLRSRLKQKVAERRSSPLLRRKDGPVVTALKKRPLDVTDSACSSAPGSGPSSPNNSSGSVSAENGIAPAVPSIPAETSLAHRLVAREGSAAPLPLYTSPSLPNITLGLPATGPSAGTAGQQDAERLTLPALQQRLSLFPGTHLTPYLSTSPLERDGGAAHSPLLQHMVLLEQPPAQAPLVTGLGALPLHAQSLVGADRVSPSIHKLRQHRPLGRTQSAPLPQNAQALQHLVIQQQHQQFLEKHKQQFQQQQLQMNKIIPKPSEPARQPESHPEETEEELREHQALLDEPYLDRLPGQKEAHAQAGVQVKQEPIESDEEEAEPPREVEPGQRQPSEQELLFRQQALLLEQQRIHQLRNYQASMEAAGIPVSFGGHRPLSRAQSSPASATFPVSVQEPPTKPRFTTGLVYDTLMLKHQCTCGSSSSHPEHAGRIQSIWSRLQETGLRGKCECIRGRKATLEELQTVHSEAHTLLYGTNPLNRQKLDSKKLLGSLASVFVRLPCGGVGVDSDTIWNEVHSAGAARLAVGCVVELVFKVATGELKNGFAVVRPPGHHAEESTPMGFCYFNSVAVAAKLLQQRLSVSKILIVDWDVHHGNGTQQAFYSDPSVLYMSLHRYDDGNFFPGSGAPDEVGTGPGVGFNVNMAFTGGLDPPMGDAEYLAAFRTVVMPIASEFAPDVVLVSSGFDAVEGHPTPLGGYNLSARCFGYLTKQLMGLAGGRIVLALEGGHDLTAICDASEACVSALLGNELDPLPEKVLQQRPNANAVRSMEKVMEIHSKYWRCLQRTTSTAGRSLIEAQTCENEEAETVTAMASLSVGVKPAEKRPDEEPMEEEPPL

SMILES	IC50 (HDAC4) [µM]	IC50 (HDAC8) [µM]	IC50 (HDAC1) [µM]
Nc1ccccc1NC(=O)CCCCc1cn(CB2C=Cc3ccccc3N2)nn1 [Compound 8]	> 35	> 35	> 35
Nc1ccccc1NC(=O)c1cn(CB2C=Cc3ccccc3N2)nn1 [Compound 9]	16.8 ± 1.6	20 ± 3	> 35
Nc1ccccc1NC(=O)CCCc1cn(CB2C=Cc3ccccc3N2)nn1 [Compound 10]	8.08 ± 1.59	19 ± 5	> 35
O=C(CCc1cn(CB2C=Cc3ccccc3N2)nn1)NO [Compound 11]	> 35	> 35	> 35
O=C(CCCCc1cn(CB2C=Cc3ccccc3N2)nn1)NO [Compound 12]	13.8 ± 4.3	6.2 ± 3.4	> 35
O=C(CCCc1cn(CB2C=Cc3ccccc3N2)nn1)NO [Compound 13]	23.1 ± 4.9	3.3 ± 1.7	> 35
Nc1cc(F)ccc1NC(=O)CCc1cn(CB2C=Cc3ccccc3N2)nn1 [Compound 14]	> 35	> 35	> 35
Nc1cc(F)ccc1NC(=O)CCCCc1cn(CB2C=Cc3ccccc3N2)nn1 [Compound 15]	> 35	> 35	> 35
O=C(CCCCCCC(=O)OCB1C=Cc2ccccc2N1)NO [Compound 16d]	14.7 ± 1.7	> 35	> 35
Nc1ccccc1NC(=O)CCCCCCC(=O)OCB1C=Cc2ccccc2N1 [Compound 17]	16.5 ± 1	15 ± 3	8.2 ± 2.5
O=C(/C=C/c1ccc(C(=O)NO)cc1)OCB1C=Cc2ccccc2N1 [Compound 18]	> 35	0.52 ± 0.11	8.2 ± 1.8
O=C(CCCC(=O)OCB1C=Cc2ccccc2N1)NO [Compound 19]	> 35	> 35	> 35

Further lines, results first:

IC50 (HDAC4) [µM]	IC50 (HDAC8) [µM]	IC50 (HDAC1) [µM]	SMILES
> 35	> 35	> 35	Nc1cc(F)ccc1NC(=O)c1cccc(C(=O)OCB2C=Cc3ccccc3N2)c1 [Compound 20]
> 35	> 35	> 35	Nc1ccccc1NC(=O)c1cccc(C(=O)OCB2C=Cc3ccccc3N2)c1 [Compound 21]
> 35	> 35	> 35	Nc1ccccc1NC(=O)CCSCCC(=O)OCB1C=Cc2ccccc2N1 [Compound 22]
7.3 ± 1.7	0.44 ± 0.07	1.88 ± 0.11	O=C(NO)c1cccc(C(=O)OCB2C=Cc3ccccc3N2)c1 [Compound 23]
> 35	> 35	9.3 ± 2.3	O=C(CCCCCCNCB1C=Cc2ccccc2N1)NO [Compound 24]
17 ± 3	> 35	> 35	O=C(NO)c1cccc(NCB2C=Cc3ccccc3N2)c1 [Compound 25]
> 35	> 35	> 35	Nc1cc(F)ccc1NC(=O)c1ccc(CNCB2C=Cc3ccccc3N2)cc1 [Compound 26]
> 35	> 35	> 35	O=C(NO)c1cccc(CNCB2C=Cc3ccccc3N2)c1 [Compound 27]
1.35 ± 0.18	0.2 ± 0.02	0.975 ± 0.394	O=C(NO)c1cccc(B2Nc3ccccc3N2)c1 [Compound 30]
> 35	> 35	> 35	Nc1ccccc1NC(=O)c1cccc(B2Nc3ccccc3N2)c1 [Compound 31]
> 35	> 35	> 35	Nc1cc(F)ccc1NC(=O)c1cccc(B2Nc3ccccc3N2)c1 [Compound 32]
> 35	> 35	> 35	O=C(NO)c1ccc(B2Nc3ccccc3N2)cc1 [Compound 35]
